The source made the active and inactive calls.
How the values were obtained:
[1] = target: Casein kinase I isoform alpha (Homo sapiens, UniProt P48729); assay type: functional
[2] = target: High affinity nerve growth factor receptor (Homo sapiens, UniProt P04629); assay type: functional;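 also: NTRK1 tested as one member of a kinome-wide profiling panel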
Activin receptor type-1 = Activin receptor type-1 (Homo sapiens, UniProt Q04771); test: Navigating the Kinome. Panel member name: ACVR1; assay type: functional
[3] = target: T1, Serine/threonine-protein kinase TAO1 (Homo sapiens, UniProt Q7L7X3); assay type: functional
T1 sequence (Q7L7X3 whole entry): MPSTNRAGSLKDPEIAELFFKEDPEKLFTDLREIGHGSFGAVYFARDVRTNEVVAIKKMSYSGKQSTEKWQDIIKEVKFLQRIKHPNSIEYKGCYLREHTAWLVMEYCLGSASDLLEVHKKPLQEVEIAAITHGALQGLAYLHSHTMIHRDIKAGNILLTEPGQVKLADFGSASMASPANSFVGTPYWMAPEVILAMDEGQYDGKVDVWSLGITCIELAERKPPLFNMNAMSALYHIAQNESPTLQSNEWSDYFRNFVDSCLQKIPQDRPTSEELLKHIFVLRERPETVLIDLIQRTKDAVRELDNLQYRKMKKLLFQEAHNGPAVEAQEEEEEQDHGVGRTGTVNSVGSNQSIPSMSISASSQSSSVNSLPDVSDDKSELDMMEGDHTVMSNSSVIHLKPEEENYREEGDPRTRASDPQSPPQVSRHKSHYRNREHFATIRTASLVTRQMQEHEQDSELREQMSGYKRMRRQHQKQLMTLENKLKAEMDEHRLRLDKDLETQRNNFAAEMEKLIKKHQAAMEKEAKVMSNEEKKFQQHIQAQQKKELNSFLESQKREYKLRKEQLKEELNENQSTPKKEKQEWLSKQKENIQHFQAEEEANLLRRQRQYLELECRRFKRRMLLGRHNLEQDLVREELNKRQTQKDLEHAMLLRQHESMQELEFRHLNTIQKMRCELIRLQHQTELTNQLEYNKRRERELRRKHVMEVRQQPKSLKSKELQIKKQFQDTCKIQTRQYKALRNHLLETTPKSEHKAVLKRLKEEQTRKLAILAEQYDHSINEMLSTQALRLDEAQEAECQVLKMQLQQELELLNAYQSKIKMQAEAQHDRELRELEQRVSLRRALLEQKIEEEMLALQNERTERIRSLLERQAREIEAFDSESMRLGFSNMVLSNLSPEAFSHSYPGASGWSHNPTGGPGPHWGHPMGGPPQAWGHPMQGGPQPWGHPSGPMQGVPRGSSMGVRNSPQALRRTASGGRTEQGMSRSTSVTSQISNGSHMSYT

[4] = target: cAMP-dependent protein kinase catalytic subunit PRKX (Homo sapiens, UniProt P51817); assay type: functional
[5] = target: Mitogen-activated protein kinase 9 (Homo sapiens, UniProt P45984); assay type: functional;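 also: value from a kinome panel profiling assay, MAPK9 panel entry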
[6] = target: Tyrosine-protein kinase Lck (Homo sapiens, UniProt P06239); assay type: functional;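 also: lck was assayed as one member of a kinase panel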
[7] = target: Platelet-derived growth factor receptor beta (Homo sapiens, UniProt P09619); assay type: functional;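 also: value comes from a kinome panel, with PDGFRB tested as one panel member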
[8] = target: Tyrosine-protein kinase JAK3 (Homo sapiens, UniProt P52333); assay type: functional
[9] = target: Serine/threonine-protein kinase PAK 4 (Homo sapiens, UniProt O96013); assay type: functional;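 also: value obtained within a kinome profiling panel in which PAK4 was one of the panel members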
[10] = target: Insulin-like growth factor 1 receptor (Homo sapiens, UniProt P08069); test: Navigating the Kinome. Panel member name: IGF1R; assay type: functional
[11] = target: Cyclin-dependent kinase 19 (Homo sapiens, UniProt Q9BWU1); test: Navigating the Kinome. Panel member name: CDC2L6; assay type: functional
[12] = target: T2, Sentrin-specific protease 8 (Homo sapiens, UniProt Q96LD8); test: SENP8 protease inhibitors, SAR follow-up, biochemical, luminescence (AID 504501); assay type: functional
T2 sequence (Q96LD8 whole entry): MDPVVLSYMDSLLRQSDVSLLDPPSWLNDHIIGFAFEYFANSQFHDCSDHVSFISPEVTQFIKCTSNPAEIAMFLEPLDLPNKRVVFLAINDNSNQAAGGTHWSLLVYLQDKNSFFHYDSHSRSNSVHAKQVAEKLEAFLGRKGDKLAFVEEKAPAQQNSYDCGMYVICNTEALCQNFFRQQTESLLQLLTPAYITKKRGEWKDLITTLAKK

[13] = target: T3, Sentrin-specific protease 7 (Homo sapiens, UniProt Q9BQF6); test: SENP7 protease inhibitors, SAR follow-up, biochemical, luminescence (AID 504497); assay type: functional
T3 sequence (Q9BQF6 whole entry): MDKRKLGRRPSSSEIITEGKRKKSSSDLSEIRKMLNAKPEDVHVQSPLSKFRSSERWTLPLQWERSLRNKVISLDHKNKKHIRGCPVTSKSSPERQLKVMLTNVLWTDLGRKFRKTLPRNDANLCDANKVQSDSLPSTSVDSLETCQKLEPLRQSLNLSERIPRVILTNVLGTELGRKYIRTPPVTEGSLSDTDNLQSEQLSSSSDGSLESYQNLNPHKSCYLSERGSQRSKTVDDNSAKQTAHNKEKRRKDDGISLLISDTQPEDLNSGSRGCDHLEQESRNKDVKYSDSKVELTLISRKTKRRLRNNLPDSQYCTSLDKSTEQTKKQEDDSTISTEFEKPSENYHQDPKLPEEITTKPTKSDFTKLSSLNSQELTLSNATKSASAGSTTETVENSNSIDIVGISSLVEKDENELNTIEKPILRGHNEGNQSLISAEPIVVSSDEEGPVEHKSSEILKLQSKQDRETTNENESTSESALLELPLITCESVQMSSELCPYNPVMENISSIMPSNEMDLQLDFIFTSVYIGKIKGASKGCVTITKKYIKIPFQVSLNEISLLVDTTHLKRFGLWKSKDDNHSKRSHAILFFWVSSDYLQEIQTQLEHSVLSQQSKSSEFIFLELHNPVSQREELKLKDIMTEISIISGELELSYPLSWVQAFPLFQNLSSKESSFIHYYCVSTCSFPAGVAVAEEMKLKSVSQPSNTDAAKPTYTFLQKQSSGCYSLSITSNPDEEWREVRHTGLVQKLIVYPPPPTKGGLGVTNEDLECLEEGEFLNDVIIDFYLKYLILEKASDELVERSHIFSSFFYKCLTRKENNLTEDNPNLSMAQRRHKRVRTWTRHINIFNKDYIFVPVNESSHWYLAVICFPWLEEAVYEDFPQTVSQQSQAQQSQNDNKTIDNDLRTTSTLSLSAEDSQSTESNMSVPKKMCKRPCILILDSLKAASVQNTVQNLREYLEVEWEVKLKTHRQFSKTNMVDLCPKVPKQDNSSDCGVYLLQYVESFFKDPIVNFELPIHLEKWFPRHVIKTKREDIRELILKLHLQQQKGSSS

SUMO-activating enzyme = SUMO-activating enzyme (Homo sapiens, UniProt Q9UBT2); test: inhibitors of in vitro SUMOylation cascade, primary screen, biochemical, HTRF, uHTS (AID 2006); assay type: protein-complex assay
SUMO-activating enzyme, sequence (Q9UBE0 whole entry): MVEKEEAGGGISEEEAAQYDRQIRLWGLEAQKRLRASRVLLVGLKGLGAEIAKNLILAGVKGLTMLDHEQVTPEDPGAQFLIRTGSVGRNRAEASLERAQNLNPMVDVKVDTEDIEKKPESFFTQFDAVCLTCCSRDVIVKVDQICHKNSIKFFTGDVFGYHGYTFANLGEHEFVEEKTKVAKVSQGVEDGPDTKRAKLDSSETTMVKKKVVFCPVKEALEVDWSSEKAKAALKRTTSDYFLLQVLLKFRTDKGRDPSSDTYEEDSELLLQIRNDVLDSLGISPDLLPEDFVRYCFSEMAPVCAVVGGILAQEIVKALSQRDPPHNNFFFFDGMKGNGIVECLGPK
SUMO-activating enzyme, sequence (Q9UBT2 whole entry): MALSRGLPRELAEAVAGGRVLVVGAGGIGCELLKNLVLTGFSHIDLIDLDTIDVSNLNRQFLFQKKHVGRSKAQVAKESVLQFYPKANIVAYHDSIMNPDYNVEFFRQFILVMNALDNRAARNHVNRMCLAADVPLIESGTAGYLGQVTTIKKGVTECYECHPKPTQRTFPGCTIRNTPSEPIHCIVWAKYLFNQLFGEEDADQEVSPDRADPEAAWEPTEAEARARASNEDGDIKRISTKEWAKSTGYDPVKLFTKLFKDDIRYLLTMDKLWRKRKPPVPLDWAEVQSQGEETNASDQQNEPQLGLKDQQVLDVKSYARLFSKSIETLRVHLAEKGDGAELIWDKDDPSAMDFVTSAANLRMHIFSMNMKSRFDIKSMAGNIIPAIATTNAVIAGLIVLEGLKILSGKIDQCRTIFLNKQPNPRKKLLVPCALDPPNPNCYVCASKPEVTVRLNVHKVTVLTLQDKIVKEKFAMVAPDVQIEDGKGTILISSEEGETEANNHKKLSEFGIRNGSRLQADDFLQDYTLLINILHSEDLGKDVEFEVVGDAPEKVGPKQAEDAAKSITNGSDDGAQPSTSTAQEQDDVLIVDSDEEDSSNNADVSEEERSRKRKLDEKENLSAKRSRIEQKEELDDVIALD

Serine/threonine-protein kinase PAK 4, sequence (O96013 whole entry): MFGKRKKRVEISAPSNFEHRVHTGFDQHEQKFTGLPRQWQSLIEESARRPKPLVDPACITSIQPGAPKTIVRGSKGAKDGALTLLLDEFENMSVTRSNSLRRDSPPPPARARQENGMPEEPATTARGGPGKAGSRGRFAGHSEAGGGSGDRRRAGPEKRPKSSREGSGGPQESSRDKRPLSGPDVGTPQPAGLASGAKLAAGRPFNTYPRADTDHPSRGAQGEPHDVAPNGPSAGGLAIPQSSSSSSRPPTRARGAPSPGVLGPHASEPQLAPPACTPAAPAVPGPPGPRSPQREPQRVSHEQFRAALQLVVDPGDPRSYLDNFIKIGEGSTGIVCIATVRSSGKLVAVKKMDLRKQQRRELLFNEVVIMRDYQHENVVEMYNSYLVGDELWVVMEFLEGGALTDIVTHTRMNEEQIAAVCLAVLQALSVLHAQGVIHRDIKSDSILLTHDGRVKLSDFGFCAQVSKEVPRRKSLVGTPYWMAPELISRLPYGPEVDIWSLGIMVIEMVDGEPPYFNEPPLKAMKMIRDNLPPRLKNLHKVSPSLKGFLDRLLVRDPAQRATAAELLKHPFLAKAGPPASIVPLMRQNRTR
Tyrosine-protein kinase JAK3, sequence (P52333 whole entry): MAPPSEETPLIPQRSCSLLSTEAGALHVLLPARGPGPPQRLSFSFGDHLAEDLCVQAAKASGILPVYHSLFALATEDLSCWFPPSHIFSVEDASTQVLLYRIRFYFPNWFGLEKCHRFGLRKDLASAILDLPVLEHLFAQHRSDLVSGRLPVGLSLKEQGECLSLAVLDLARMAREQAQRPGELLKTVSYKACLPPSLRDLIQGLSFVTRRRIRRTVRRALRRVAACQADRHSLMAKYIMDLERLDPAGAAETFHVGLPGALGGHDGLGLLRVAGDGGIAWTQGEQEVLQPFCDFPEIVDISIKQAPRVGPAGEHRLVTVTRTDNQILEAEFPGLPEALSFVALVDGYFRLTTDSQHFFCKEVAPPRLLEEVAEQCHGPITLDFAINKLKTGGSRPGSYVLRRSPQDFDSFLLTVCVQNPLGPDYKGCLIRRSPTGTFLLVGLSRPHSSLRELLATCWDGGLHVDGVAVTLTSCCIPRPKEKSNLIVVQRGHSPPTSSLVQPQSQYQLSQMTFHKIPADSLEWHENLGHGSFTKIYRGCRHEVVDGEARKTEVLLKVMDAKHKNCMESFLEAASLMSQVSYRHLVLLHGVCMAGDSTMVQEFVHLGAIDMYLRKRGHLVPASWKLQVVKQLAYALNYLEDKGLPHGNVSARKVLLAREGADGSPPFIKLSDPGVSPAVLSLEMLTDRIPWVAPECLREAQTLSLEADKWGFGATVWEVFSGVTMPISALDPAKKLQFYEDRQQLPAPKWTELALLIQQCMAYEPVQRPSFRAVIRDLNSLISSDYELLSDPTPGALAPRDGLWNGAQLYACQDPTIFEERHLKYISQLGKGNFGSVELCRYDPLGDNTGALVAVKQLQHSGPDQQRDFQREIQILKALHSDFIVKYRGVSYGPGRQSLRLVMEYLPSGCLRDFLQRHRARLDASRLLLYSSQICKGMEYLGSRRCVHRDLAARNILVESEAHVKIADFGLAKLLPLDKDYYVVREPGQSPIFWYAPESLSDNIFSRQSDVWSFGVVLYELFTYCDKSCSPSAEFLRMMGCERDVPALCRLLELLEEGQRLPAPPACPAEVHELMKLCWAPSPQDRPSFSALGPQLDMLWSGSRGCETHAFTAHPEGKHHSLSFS
Activin receptor type-1, sequence (Q04771 whole entry): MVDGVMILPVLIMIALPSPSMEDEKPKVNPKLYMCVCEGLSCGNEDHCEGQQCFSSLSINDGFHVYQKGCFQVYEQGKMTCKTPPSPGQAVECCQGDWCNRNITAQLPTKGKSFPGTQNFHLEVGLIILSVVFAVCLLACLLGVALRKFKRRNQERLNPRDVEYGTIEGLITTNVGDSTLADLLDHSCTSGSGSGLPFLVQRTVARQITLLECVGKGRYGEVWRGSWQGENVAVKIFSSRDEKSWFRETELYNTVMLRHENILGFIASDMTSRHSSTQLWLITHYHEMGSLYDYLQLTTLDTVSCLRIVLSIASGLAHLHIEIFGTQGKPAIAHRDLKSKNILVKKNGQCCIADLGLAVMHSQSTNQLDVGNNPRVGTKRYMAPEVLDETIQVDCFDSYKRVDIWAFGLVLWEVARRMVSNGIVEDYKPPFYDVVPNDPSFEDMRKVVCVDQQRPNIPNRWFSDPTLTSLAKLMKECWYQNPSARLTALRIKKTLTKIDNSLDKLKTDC
High affinity nerve growth factor receptor, sequence (P04629 whole entry): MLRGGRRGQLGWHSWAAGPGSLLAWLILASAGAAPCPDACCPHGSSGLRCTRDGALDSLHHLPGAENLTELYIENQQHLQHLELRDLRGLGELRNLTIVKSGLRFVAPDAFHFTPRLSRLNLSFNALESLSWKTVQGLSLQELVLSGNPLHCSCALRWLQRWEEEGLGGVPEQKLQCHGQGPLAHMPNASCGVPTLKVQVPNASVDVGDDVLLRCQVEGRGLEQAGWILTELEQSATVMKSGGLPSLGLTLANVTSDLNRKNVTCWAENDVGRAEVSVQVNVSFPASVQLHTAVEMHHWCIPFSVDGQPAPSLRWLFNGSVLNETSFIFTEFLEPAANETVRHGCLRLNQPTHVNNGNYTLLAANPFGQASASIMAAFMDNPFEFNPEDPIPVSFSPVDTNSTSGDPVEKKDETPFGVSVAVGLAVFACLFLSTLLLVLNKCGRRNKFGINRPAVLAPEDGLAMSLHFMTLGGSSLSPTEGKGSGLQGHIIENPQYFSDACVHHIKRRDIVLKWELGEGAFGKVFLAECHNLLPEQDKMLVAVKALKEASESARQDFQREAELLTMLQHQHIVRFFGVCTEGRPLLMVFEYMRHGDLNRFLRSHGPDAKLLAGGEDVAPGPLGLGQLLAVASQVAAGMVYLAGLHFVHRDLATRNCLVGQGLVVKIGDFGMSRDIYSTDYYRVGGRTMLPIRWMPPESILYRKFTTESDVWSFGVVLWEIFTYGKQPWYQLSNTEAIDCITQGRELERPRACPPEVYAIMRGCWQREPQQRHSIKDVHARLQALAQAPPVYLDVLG
Cyclin-dependent kinase 19, sequence (Q9BWU1 whole entry): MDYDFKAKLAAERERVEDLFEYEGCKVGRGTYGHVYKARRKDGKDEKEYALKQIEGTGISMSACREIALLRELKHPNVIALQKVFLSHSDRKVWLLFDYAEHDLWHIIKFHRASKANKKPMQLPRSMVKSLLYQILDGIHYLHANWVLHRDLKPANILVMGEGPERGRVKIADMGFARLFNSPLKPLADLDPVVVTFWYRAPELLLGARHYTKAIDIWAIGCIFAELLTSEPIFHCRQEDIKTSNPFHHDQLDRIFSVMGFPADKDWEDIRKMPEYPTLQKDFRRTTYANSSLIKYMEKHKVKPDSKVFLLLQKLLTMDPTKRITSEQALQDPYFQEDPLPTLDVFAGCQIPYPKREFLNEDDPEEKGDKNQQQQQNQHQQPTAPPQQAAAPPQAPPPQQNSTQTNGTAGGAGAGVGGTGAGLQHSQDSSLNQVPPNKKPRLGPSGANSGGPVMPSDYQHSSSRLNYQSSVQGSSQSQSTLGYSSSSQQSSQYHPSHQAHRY
Mitogen-activated protein kinase 9, sequence (P45984 whole entry): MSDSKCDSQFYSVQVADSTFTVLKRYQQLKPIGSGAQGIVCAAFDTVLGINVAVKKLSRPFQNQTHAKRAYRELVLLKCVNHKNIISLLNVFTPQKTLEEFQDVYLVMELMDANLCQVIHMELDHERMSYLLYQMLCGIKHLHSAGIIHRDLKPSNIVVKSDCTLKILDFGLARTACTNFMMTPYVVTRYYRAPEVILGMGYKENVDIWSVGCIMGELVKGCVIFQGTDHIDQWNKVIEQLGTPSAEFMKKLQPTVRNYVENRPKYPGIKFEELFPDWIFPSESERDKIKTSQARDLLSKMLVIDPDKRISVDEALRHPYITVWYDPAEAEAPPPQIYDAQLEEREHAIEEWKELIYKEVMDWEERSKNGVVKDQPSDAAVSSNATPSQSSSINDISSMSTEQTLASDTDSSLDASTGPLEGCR

Row | SMILES | Ki [1] | Ki [2] | Ki (Activin receptor type-1) | Ki [3] | Ki [4] | Ki [5] | Ki [6] | Ki [7] | Ki [8] | Ki [9] | Ki [10] | Ki [11] | IC50 [12] | IC50 [13] | IC50 (SUMO-activating enzyme)
1 | NC(COc1cncc(-c2ccc3c(c2)C(=Cc2ccc[nH]2)C(=O)N3)c1)Cc1ccccc1 (stereo not given) | 2 µM (active) | 0.0631 µM (active) | 0.794 µM (active) | 0.251 µM (active) | 0.0398 µM (active) | 1.26 µM (active) | 0.251 µM (active) | 0.00316 µM (active) | 0.02 µM (active) | 0.0316 µM (active) | 1 µM (active) |  |  |  | 
2 | O=C1Cc2cc(-c3ccccc3)cnc2N1 |  |  |  |  |  |  |  | 50.1 µM (active) |  |  |  | > 100 µM (inactive) |  |  | 
3 | O=C1Nc2cc(-c3ccc(O)cc3)ccc2C1=Cc1ccc[nH]1 | > 3.98 µM (inactive) | 2 µM (active) | 3.16 µM (active) | 0.398 µM (active) | 2 µM (active) | > 3.98 µM (inactive) | 1 µM (active) |  | 0.02 µM (active) | > 5.01 µM (inactive) | > 2.51 µM (inactive) | > 100 µM (inactive) |  |  | 
4 | CN(C)c1cc(N/N=C\c2ccccc2)nc(N(C)C)n1 |  |  |  |  |  |  |  |  |  |  |  |  | 31.7 µM (active) | 16.2 µM (active) | 15.5 µM (active)
5 | COc1cc2cc(NC(C)=O)cc(NCc3ccccc3)c2cc1OC |  |  |  |  |  |  |  |  |  |  |  |  | > 99 µM (inactive) | 67.6 µM (active) | 
6 | Oc1nc(Nc2ccc(F)cc2)cc2ccccc12 |  |  |  |  |  |  |  |  |  |  |  |  |  |  | 3.38 µM (active)
